# Experimental data as given in patent US20230265068A1, “TRANSIENT RECEPTOR POTENTIAL CANONICAL 3 INHIBITORS AND METHODS OF USE THEREOF” (University of Tennessee Research Foundation, priority 2020, published 2023).
# How the values were obtained:
# TRPC3 [1] = biological target: T1, TRPC3 (Homo sapiens, UniProt Q13507); settings: literature ref 21; cited from earlier work
# T1 sequence (Q13507 1-921): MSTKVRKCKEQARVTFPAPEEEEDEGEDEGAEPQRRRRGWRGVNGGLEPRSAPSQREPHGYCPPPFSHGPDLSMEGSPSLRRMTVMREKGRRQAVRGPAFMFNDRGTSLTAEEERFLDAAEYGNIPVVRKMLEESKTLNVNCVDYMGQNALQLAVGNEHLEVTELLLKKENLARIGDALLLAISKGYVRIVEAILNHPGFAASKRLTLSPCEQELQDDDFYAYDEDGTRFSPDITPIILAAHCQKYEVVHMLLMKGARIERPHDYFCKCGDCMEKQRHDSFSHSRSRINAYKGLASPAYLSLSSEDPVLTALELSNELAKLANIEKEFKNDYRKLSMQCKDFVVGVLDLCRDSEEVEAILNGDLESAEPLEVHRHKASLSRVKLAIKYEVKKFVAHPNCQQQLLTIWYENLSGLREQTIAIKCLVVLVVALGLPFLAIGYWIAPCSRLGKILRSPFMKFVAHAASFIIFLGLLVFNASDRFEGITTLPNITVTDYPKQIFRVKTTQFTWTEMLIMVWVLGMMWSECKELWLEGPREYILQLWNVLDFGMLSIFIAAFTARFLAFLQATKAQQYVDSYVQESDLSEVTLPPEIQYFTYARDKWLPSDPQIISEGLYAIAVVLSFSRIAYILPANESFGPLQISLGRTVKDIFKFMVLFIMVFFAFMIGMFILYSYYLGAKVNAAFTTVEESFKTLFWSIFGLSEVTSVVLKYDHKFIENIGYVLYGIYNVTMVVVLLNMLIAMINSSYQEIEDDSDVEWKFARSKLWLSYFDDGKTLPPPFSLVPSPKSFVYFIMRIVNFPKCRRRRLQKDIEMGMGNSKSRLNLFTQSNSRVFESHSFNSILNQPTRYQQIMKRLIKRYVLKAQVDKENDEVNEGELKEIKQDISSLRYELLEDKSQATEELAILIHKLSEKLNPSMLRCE
# [2] = maximum tolerated dose / in vivo toxicity study in mice; settings: mouse, in vivo
# Procedure: The in vivo study was performed in compliance with the NIH Animal Use Guidelines and protocol approved by the Institutional Animal Care and Use Committee (IACUC) at the University of Tennessee Health Science Center (UTHSC, Memphis, Tenn.). NSG mice at 8 weeks (n=2) and ICR mice at 12 weeks (n=3) were housed with a 12:12-hour light-dark cycle and fed a breeder chow diet. Daily IP injections of 200 mg/kg of compounds 22 or 79 were administered for five consecutive injections in five mice, respectively, which were followed to monitor the mortality rate. Body weights of the mice were recorded daily.
# The metabolic stability of compound 22 was tested prior to the next phase of in vivo study. […] The maximum tolerated dose (MTD) study was subsequently performed to investigate its in vivo toxicity (FIGS. 4A and 4B). The second major limitation of Pyr3 is its toxicity due to its alkylating tail moiety. While replacing only the fast-metabolizing head ester group in Pyr3 with a stable amide (compound 79) improved metabolic stability, a single IP injection of compound 79 at 200 mg/kg killed all mice within 24 h.
# Compound 79 is a metabolically stable version of Pyr3. Mice treated daily with compound 22 or compound 79 (n=5) for 5 consecutive days. All the mice were treated with either compound 22 or 79 at 200 mg/kg (IP). […]
# TRPC3 [3] = biological target: T1, TRPC3; test: whole-cell patch clamp of HEK293 cells transfected with hTRPC3, currents activated by GSK1702934A; assay type: cell-based; parameters: expressed in transfected cells; host or cells: HEK293 (CRL-1573), transient transfection, pMO vector; settings: for inhibition at 10 µM: 10 μM compound in presence of agonist GSK1702934A, HEK293 whole-cell peak current, read-out: hTRPC3 % Inhibition at 10 μM (mean ± SEM); for IC50: agonist GSK1702934A, HEK293 whole-cell patch clamp, read-out: hTRPC3 IC50 (μM, mean ± SEM)
# Procedure: Human embryonic kidney 293 (HEK293; catalog number CRL-1573) cells were cultured in Dulbecco's modified Eagle's medium (Invitrogen) supplemented with 10% fetal bovine serum and 1% penicillin-streptomycin at 37° C. and 5% CO2. Constructs cloned in pMO (a pcDNA3-modified vector) were co-transfected with GFP-pMO, using Lipofectamine 2000 (Invitrogen) according to the manufacturer's instructions. Macroscopic currents in the whole-cell patch clamp configuration were recorded 18-24 h post-transfection. The extracellular solution contained 140 mM NaCl, 6 mM KCl, 2 mM MgCl2, 10 mM HEPES, and 10 mM glucose (pH 7.4). Pipettes were made of borosilicate glass (outer diameter, 1.5 mm; inner diameter, 1.10 mm; Sutter Instruments) and fire-polished with a resistance between 2.8 and 4.0 megaohms when filled with an intracellular solution that contained 140 mM CsCl, 5 mM EGTA, and 10 mM HEPES, pH 7.2. Currents were recorded with a Multiclamp 700B amplifier (Molecular Devices) using a 1-s ramp from −100 to 100 mV. Agonist and antagonists perfused were dissolved in the bath solution prior experiments: TRP channel agonists Allyl isothiocyanate (AITC; TRPA1), capsaicin (TRPV1), and menthol (TRPM8) were obtained from Sigma, GSK1016790A (TRPV4) from Cayman chemicals, and GSK1702934A (TRPC3, TRPC6 and TRPC7) from Tocris Bioscience. Antagonist Pyr3 was obtained from Tocris Bioscience, all other antagonists were synthesized in house. Data were acquired with a sampling rate of 20 kHz, low-pass filtered (10 kHz), and analyzed offline using Clampfit v10.4.2.0 (Molecular Devices).
# Electrophysiology results were expressed as means±SD. Data were plotted, and sigmoidal fitting was done using OriginPro (from OriginLab), with the following Boltzmann function:
# Using the patch clamp technique in the whole-cell configuration, compounds were screened by challenging hTRPC3 overexpressing HEK293 cells with GSK1702934A to activate TRPC3 and each of the synthesized compounds (10 μM) individually in the presence of the agonist.
# To avoid tachyphylaxis and determine the IC50 of compound 22, each point of the dose response curve (FIG. 1B) was done individually on a cell and exchanging coverslips between cells. […] FIGS. 1D-1I show the inhibition of TRPC3-mediated currents by compound 22 and Pyr3 (serving as the reference control). […] Similar results were obtained when OAG was used as the agonist (data not shown).
Structure (SMILES),inhibition at 10 µM (TRPC3 [3]),further results
O=C(Nc1ccc(-n2ncc(C(=O)O)c2C(F)(F)F)cc1)C(Cl)=C(Cl)Cl [Pyr8],,TRPC3 inhibition (TRPC3 [1]): little TRPC3 inhibition
"CCOC(=O)c1cnn(-c2ccc(-n3ccc(Cl)c(Br)c3=O)cc2)c1C(F)(F)F [Compound 8, Ethyl 1-(4-(3-bromo-4-chloro-2-oxopyridin-1(2H)-yl)phenyl)-5-(trifluoromethyl)-1H-pyrazole-4-carboxylate]",,survival of treated mice [2]: alive
"CCC(=O)Nc1cnn(-c2ccc(-n3ccc(Cl)c(Cl)c3=O)cc2)c1C(F)(F)F [Compound 58, N-(1-(4-(3,4-dichloro-2-oxopyridin-1(2H)-yl)phenyl)-5-(trifluoromethyl)-1H-pyrazol-4-yl)propionamide]",86 ± 2.8%,
"CCNC(=O)c1nn(-c2ccc(-n3ccc(Cl)c(Cl)c3=O)cc2)nc1C(F)(F)F [Compound 63, 2-(4-(3,4-dichloro-2-oxopyridin-1(2H)-yl)phenyl)-N-ethyl-5-(trifluoromethyl)-2H-1,2,3-triazole-4-carboxamide]",86.9 ± 3.83%,
"CC(C)NC(=O)c1cnn(-c2ccc(-n3ccc(Cl)c(Cl)c3=O)cc2)c1C(F)(F)F [Compound 41, 1-(4-(3,4-dichloro-2-oxopyridin-1(2H)-yl)phenyl)-N-isopropyl-5-(trifluoromethyl)-1H-pyrazole-4-carboxamide]",25.8 ± 8.57%,
"CCNC(=O)c1cnn(-c2ccc(-n3ccc(O)c(Cl)c3=O)cc2)c1C(F)(F)F [Compound 32, 1-(4-(3-chloro-4-hydroxy-2-oxopyridin-1(2H)-yl)phenyl)-N-ethyl-5-(trifluoromethyl)-1H-pyrazole-4-carboxamide]",96 ± 1.37%,IC50 (TRPC3 [3]): 0.35 ± 0.09 µM
"O=C(c1cnn(-c2ccc(-n3ccc(Cl)c(Cl)c3=O)cc2)c1C(F)(F)F)N1CCCC1 [Compound 45, 3,4-dichloro-1-(4-(4-(pyrrolidine-1-carbonyl)-5-(trifluoromethyl)-1H-pyrazol-1-yl)phenyl)pyridin-2(1H)-one]",86.7 ± 3.82%,
"CCCC(N)c1cnn(-c2ccc(-n3ccc(Cl)c(Cl)c3=O)cc2)c1C(F)(F)F (centres unmarked) [Compound 76, 1-(4-(4-(1-aminobutyl)-5-(trifluoromethyl)-1H-pyrazol-1-yl)phenyl)-3,4-dichloropyridin-2(1H)-one]",33 ± 5.58%,
"CCOC(=O)c1cnn(-c2ccc(-n3ccc(Cl)cc3=O)cc2)c1C(F)(F)F [Compound 2, Ethyl 1-(4-(4-chloro-2-oxopyridin-1(2H)-yl)phenyl)-5-(trifluoromethyl)-1H-pyrazole-4-carboxylate]",71.1 ± 2.66%,
"CC(=O)c1cnn(-c2ccc(-n3ccc(Cl)cc3=O)cc2)c1C(F)(F)F [Compound 66, 1-(4-(4-acetyl-5-(trifluoromethyl)-1H-pyrazol-1-yl)phenyl)-4-chloropyridin-2(1H)-one]",60.4 ± 5.12%,
"CCNC(=O)c1cnn(-c2ccc(-n3ccc(C(F)(F)F)c(Cl)c3=O)cc2)c1C(F)(F)F [Compound 27, 1-(4-(3-chloro-2-oxo-4-(trifluoromethyl)pyridin-1(2H)-yl)phenyl)-N-ethyl-5-(trifluoromethyl)-1H-pyrazole-4-carboxamide]",89.4 ± 6.45%,
"CCCC(=O)c1cnn(-c2ccc(-n3ccc(Cl)c(Cl)c3=O)cc2)c1C(F)(F)F [Compound 69, 1-(4-(4-butyryl-5-(trifluoromethyl)-1H-pyrazol-1-yl)phenyl)-3,4-dichloropyridin-2(1H)-one]",63.4 ± 4.83%,
"CCc1nnc(-c2cnn(-c3ccc(-n4ccc(Cl)c(Cl)c4=O)cc3)c2C(F)(F)F)o1 [Compound 46, 3,4-dichloro-1-(4-(4-(5-ethyl-1,3,4-oxadiazol-2-yl)-5-(trifluoromethyl)-1H-pyrazol-1-yl)phenyl)pyridin-2(1H)-one]",92.9 ± 6.78%,IC50 (TRPC3 [3]): 0.29 ± 0.05 µM
"CCNC(=O)c1cnn(-c2ccc(-n3ccc(Cl)c(Cl)c3=O)cc2)c1Cl [Compound 51, 5-chloro-1-(4-(3,4-dichloro-2-oxopyridin-1(2H)-yl)phenyl)-N-ethyl-1H-pyrazole-4-carboxamide]",72.3 ± 2.88%,
"CCNCc1cnn(-c2ccc(-n3ccc(Cl)c(Cl)c3=O)cc2)c1C(F)(F)F [Compound 74, 3,4-dichloro-1-(4-(4-((ethylamino)methyl)-5-(trifluoromethyl)-1H-pyrazol-1-yl)phenyl)pyridin-2(1H)-one]",97.96 ± 0.83%,IC50 (TRPC3 [3]): 0.09 ± 0.02 µM
"CCNC(=O)c1cnn(-c2ccc(-n3ccc(Cl)cc3=O)cc2)c1C(F)(F)F [Compound 21, 1-(4-(4-chloro-2-oxopyridin-1(2H)-yl)phenyl)-N-ethyl-5-(trifluoromethyl)-1H-pyrazole-4-carboxamide]",84.52 ± 0.722%,
"CCNC(=O)c1cn(-c2ccc(-n3ccc(Cl)c(Cl)c3=O)cc2)nc1C(F)(F)F [Compound 49, 1-(4-(3,4-dichloro-2-oxopyridin-1(2H)-yl)phenyl)-N-ethyl-3-(trifluoromethyl)-1H-pyrazole-4-carboxamide]",97.23 ± 0.89%,IC50 (TRPC3 [3]): 1.1 ± 0.24 µM
"CC(=O)c1cnn(-c2ccc(-n3ccc(Cl)c(Cl)c3=O)cc2)c1C(F)(F)F [Compound 67, 1-(4-(4-acetyl-5-(trifluoromethyl)-1H-pyrazol-1-yl)phenyl)-3,4-dichloropyridin-2(1H)-one]",88.7 ± 2.83%,
"O=C(NC1CC1)c1cnn(-c2ccc(-n3ccc(Cl)c(Cl)c3=O)cc2)c1C(F)(F)F [Compound 44, N-cyclopropyl-1-(4-(3,4-dichloro-2-oxopyridin-1(2H)-yl)phenyl)-5-(trifluoromethyl)-1H-pyrazole-4-carboxamide]",74.8 ± 5.65%,
